Structures can show the parent of a compound that is named as a salt.

Series [1] deals with reserpine hypothermia. Nature of the series: Prevention of Reserpine Hypothermia. The format is in vivo, mice (Carworth Europe male). To be noted: for Reserpine Prevention Δ^6: 6 hours; for Reserpine Prevention Δ^24: 24 hours; for Δ^6 / Δ^24: mice, oral; for Δ^6: cumulative temperature difference from controls at 6 hours; for Δ^24: cumulative temperature difference from controls at 24 hours. The method, then:
The method of Spencer [Antidepressant Drugs, 194 (1967) ] was used. Groups of ten mice are given oral doses of test compound 24 18 and 2 hours before an intravenous injection of reserpine base (Serpasil). Oral temperatures of the mice are taken immediately before administration of reserpine and then 2 4 6 and 24 hours afterwards.
Mean temperatures of groups given test compounds are compared with reserpinised controls using a Students t test. Compounds causing a significant difference at the level P < 0.001 are considered active. In order to quantify anti-reserpine activity cumulative temperature differences from controls at 6 hours and 24 hours (Δ^6 and Δ^24 ) are calculated.
(§1) Carworth Europe male mice are used for all experiments apart from that using the cat nictitating membrane and test compounds are administered orally as solutions in distilled water. Compounds for intravenous administration are dissolved in 0.9% saline apart from Reserpine which is dissolved in dilute acetic acid buffered to pH5. Unless otherwise stated, the dosing interval is one hour.
(§2) The Reserpine Prevention, Reserpine Reversal and Noradrenaline Uptake Inhibition tests were carried out as described in the previous Example. The Mydriasis tests was also as described in the previous Example but using 20 mg/kg doses of each compound after which a curve was plotted of percentage increase in pupil diameter vertus time and the percentage increase was integrated with respect to time for 0-120 minutes after dosing and the result expressed as a percentage.

For series [2], the system named is reserpine hypothermia. Nature of the series: Reversal of Reserpine Hypothermia. The format is in vivo, mice (Carworth Europe male). The following applies: for Reserpine Reversal Δ^6 / Δ^6: 6 hours; for Reserpine Reversal Δ^24 / Δ^24: 24 hours; for Δ^6 / Δ^24: mice, subcutaneous. The method, then: Seventeen hours later the oral temperatures of the mice are taken and various doses of test compound or vehicle given subcutaneously. Temperatures are taken 1, 2, 4 6 and 24 hours later and the results are analysed as in Test 1 (The subcutaneous route is used for convenience as the very depressed reserpinised mice cannot be reliably dosed orally).
as §1, §2

The subject of another series is Noradrenaline uptake. The series can be described thus: Inhibition of Noradrenaline Uptake in vitro (brain synaptosomes). Format: biochemical, male Wistar rats. As to the method:
(§3) Synaptosomes are isolated from the brains of male Wistar rats (150-170g.) and monamine uptake determined by the method of Snyder and Coyle (1968) [Synder S. H. and Coyle J. T. J. Pharmac. exp. Ther. 165 (1968) 78-86]. Uptake was determined over a ten minute period instead of the normal five minutes.
as §2

Series [3] has as its system pupil diameter (mydriasis). The series can be described thus: Mydriasis integral 0-120 minutes. The format is in vivo, mice. The following applies: mice, 20 mg/kg, 0-120 minutes. The method, then:
Groups of five mice are pre-selected for uniformity of pupil diameter using a binocular microscope with a calibrated eye-piece. Pupil sizes are measured at various intervals after an intraperitoneal injection of test compound and at the peak time a curve plotted of percentage increase in pupil diameter versus log dose. From this the dose causing a 200% increase in pupil size (this lies on the linear part of the curve) is found
as §1, §2

In series [4] the test system is pupil diameter (mydriasis, anticholinergic side effect). The series can be described thus: Mydriatic Response in Mice (dose causing 200% increase in pupil size). The format is in vivo. The method, then:
Groups of five mice are pre-selected for uniformity of pupil diameter using a binocular microscope with a calibrated eye-piece. Pupil sizes are measured at various intervals after an intraperitoneal injection of test compound and at the peak time a curve plotted of percentage increase in pupil diameter versus log dose. […] Carworth Europe male mice are used for all experiments apart from that using the cat nictitating membrane and test compounds are administered orally as solutions in distilled water. […] Unless otherwise stated, the dosing interval is one hour.

In series [5] the target is T1, Guinea Pig Ileum (Cavia porcellus).
T1 construct: from tissue; host or cells: guinea pig ileum
Nature of the series: pA2 Determination on Guinea Pig Ileum (antagonism to Acetylcholine). The following applies: in vitro, read-out: pA2 on Iillium (converted). The text has this:
It is thus a means of expressing anticholinergic activity which is independent of the dose of Acetylcholine and the piece of tissue used. The method used is similar to that of Schild, [Brit. J. Pharmacol. 14 (1959) 48] the tissue being bathed in Tyrode solution and a dose response curved for Acetylcholine being obtained.

Series [6] relates to 5-Hydroxytryptamine uptake. The series can be described thus: Inhibition of 5-Hydroxytryptamine Uptake in vitro (brain synaptosomes). Format: biochemical, male Wistar rats. The method, then:
as §3

Setting [7] is: Pharmacology 2, dose 10 (unit not given).
The mark [8] stands for this setting: Pharmacology 2, dose 20 (unit not given).
[9] abbreviates: Pharmacology 2, dose 40 (unit not given).
Setting [10] is: mice, intraperitoneal, at peak time.

T1 sequence (H0W1Z3 1-590): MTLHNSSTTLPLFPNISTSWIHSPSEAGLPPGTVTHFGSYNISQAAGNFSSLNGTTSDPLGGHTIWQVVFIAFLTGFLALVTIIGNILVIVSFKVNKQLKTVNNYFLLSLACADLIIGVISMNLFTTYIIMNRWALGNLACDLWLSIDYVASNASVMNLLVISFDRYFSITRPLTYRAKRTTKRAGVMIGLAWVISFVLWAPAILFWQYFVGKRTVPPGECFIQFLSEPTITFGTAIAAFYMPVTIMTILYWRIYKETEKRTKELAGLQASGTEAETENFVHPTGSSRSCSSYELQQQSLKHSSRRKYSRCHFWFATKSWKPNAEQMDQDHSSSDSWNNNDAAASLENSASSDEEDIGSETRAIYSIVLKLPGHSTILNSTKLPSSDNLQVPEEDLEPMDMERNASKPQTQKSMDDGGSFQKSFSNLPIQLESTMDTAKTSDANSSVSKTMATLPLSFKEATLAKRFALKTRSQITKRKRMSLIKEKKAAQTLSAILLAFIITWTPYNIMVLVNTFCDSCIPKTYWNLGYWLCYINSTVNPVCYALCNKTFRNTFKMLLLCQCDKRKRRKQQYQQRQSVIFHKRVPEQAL

As for `CN(C)CC(O)C(c1ccccc1)c1ccccc1` (racemic) [Compound A, (±) -3-Dimethylamino-1,1-diphenylpropan-2-ol], the “Reserpine Prevention Δ^6” value turned out to be 12 °C with reserpine hypothermia [1] (setting [7]), 15 °C in the series on reserpine hypothermia [1] (setting [8]) and 15 °C in the series on reserpine hypothermia [1] (setting [9]). The “Reserpine Prevention Δ^24” value with reserpine hypothermia [1] (setting [7]) was 16 °C; in the series with reserpine hypothermia [1] (setting [8]), 19 °C; in the series with reserpine hypothermia [1] (setting [9]), 22 °C. Also, the figures for the “Reserpine Reversal Δ^6” value with reserpine hypothermia [2] (setting [7]), in the series on reserpine hypothermia [2] (setting [8]) and in the series with reserpine hypothermia [2] (setting [9]) were 16 °C, 14 °C and 15 °C, respectively. The “Reserpine Reversal Δ^24” value in the series with reserpine hypothermia [2] (setting [7]) worked out at 20 °C; in the series on reserpine hypothermia [2] (setting [8]) it was 17 °C; in the series with reserpine hypothermia [2] (setting [9]) it was 20 °C. Moreover, in the series on Noradrenaline uptake (10^-6 molar (Pharmacology 2)), the “Inhibition of Noradrenaline Uptake In Vitro %” value amounted to 63%. In addition, the “Mydriasis Integral Percent 120 Mins.” value in series [3] is given as 7400%.

As for `CN(C)CCC=C1c2ccccc2CCc2ccccc21` [Amitriptyline hydrochloride, reference compound], in the series on reserpine hypothermia [1] (30 mg/kg), the “Δ^6” value was 12 °C and the “Δ^24” value came to 22 °C. In addition, in series [4] (mouse, in vivo, ip), the “Mydriasis-Dose to cause 200% effect” value amounted to 6 mg/kg.

Take `CCN(CC)CC(O)C(c1ccccc1)c1ccccc1` (stereo not shown) [C2H5 C2H5 H H H HCl]: in the series on reserpine hypothermia [1] (30 mg/kg), the “Δ^6” value stood at 11 °C and the “Δ^24” value amounted to 11 °C.

For the compound `CN(Cc1ccccc1)CC(O)C(c1ccccc1)c1ccc(F)cc1` (stereo not shown) [CH2C6H5 CH3 H H F, 3-(N-Benzyl,N-methylamino)-1-p-fluorophenyl-1-phenylpropan-2-ol], in the series on reserpine hypothermia [1] (30 mg/kg), the “Δ^6” value came to 9 °C and the “Δ^24” value came to 11 °C.

Take `CN(Cc1ccccc1)CC(O)C(c1ccccc1)c1ccccc1` (stereo not shown) [CH2C6H5 CH3 H H H HCl, 3-(N-Benzyl-N-methylamino)-1,1-diphenyl-propan-2-ol]: in the series with reserpine hypothermia [1] (30 mg/kg), the “Δ^6” value was 10 °C and the “Δ^24” value stood at 11 °C.

Take `Cc1ccccc1C(c1ccccc1)C(O)CN(C)C` (stereo not shown) [CH3 CH3 CH3 H H HCl, 3-Dimethylamino-1-phenyl-1-o-tolyl-propan-2-ol]: in the series with reserpine hypothermia [1] (30 mg/kg), the “Δ^6” value stood at 11 °C and the “Δ^24” value amounted to 14 °C.

On to `CN(C)CC(O)C(c1ccccc1)c1cccc(Cl)c1` (stereo not shown) [CH3 CH3 H Cl H HCl, 3-Dimethylamino-1-m-chlorophenyl-1-phenyl-propan-2-ol], for which, in the series on reserpine hypothermia [1] (20 mg/kg), the “Δ^6” value amounted to 10 °C and the “Δ^24” value is 17 °C.

On to `CN(C)CC(O)C(c1ccccc1)c1ccc(Cl)cc1` (stereo not shown) [CH3 CH3 H H Cl, 3-Dimethylamino-1-p-chlorophenyl-1-phenyl-propan-2-ol], for which, in the series on reserpine hypothermia [1] (30 mg/kg), the “Δ^6” value was found to be 13 °C and the “Δ^24” value is 22 °C. In the series on reserpine hypothermia [2] (30 mg/kg), the “Δ^6” value came to 9 °C and the “Δ^24” value is 11 °C. Also, in series [4] (setting [10]), the “Mydriasis-Dose to cause 200% effect” value stood at 40 mg/kg. Besides, in series [5], the Kb is 10 µM.

As for `CN(C)CC(O)C(c1ccccc1)c1ccc(F)cc1` (stereo not shown) [CH3 CH3 H H F, 3-Dimethylamino-1-p-fluorophenyl-1-phenyl-propan-2-ol], the figures for the “Δ^6” value in the series with reserpine hypothermia [1] (20 mg/kg) and in the series on reserpine hypothermia [2] (25 mg/kg) were 11 °C and 17 °C, respectively. In addition, the “Δ^24” value came out at 15 °C in the series on reserpine hypothermia [1] (20 mg/kg) and 23 °C with reserpine hypothermia [2] (25 mg/kg). Further, the “Inhibition of Monoamine Uptake NA (%)” value with Noradrenaline uptake (10^-5 molar) was 80%; in the series with Noradrenaline uptake (10^-6 molar (Table 4)) it was 59%. Further, the “Inhibition of Monoamine Uptake 5HT (%)” value in series [6] (10^-5 molar) turned out to be 85%; in series [6] (10^-6 molar), 60%.

As for `CN(C)CC(O)C(c1ccccc1)c1ccccc1` (stereo not shown) [CH3 CH3 H H H HBr, 3-Dimethylamino-1,1-diphenyl-propan-2-ol], in the series on reserpine hypothermia [1] (20 mg/kg), the “Δ^6” value worked out at 13 °C and the “Δ^24” value is 19 °C. Moreover, in the series with reserpine hypothermia [2] (20 mg/kg), the “Δ^6” value was 14 °C and the “Δ^24” value was 22 °C. The “Mydriasis-Dose to cause 200% effect” value in series [4] (setting [10]) stood at 41 mg/kg. Further, the Kb in series [5] was 10 µM.

For the compound `CNCC(O)C(c1ccccc1)c1ccc(C)cc1` (stereo not shown) [CH3 H H H CH3 HCl, 3-N-methylamino-1-phenyl-1-p-tolyl-propan-2-ol], in the series with reserpine hypothermia [1] (100 mg/kg), the “Δ^6” value worked out at 6 °C and the “Δ^24” value was determined as 6 °C.

As to `CNCC(O)C(c1ccccc1)c1ccccc1` (stereo not shown) [CH3 H H H H HCl, 3-Methylamino-1,1-diphenyl-propan-2-ol], in the series on reserpine hypothermia [1] (20 mg/kg), the “Δ^6” value is above 10 °C and the “Δ^24” value was above 10 °C. In the series with Noradrenaline uptake (10^-5 molar), the “Inhibition of Monoamine Uptake NA (%)” value was 85%. Moreover, the “Inhibition of Monoamine Uptake NA (%)” value in the series with Noradrenaline uptake (10^-6 molar (Table 4)) is on record as 65%. For the same compound, the “Mydriasis-Dose to cause 200% effect” value in series [4] (setting [10]) is reported as 114 mg/kg. Further, in series [5], the Kb is 10 µM.

Regarding `CN(Cc1ccccc1)CC(C)(O)C(c1ccccc1)c1ccccc1` (stereo not shown) [CH3 H N(CH3)CH2C6H5, 3-(N-Benzyl N-methylamino)-2-methyl-1,1-diphenyl-propan-2-ol], in the series on reserpine hypothermia [1] (100 mg/kg), the “Δ^6” value came to 6 °C and the “Δ^24” value came out at 8 °C.

Turning to `CNCC(C)(O)C(c1ccccc1)c1ccccc1` (stereo not shown) [CH3 H NHCH3, 3-(N-methylamino)-2-methyl-1,1-diphenyl-propan-2-ol], in the series on reserpine hypothermia [1] (30 mg/kg), the “Δ^6” value was determined as 7 °C and the “Δ^24” value is 13 °C.

For the compound `CNCC(O)C(c1ccccc1)c1ccc(F)cc1` (stereo not shown) [H CH3 H H F, 3-Methylamino-1-p-fluorophenyl-1-phenyl-propan-2-ol], in the series with reserpine hypothermia [1] (30 mg/kg), the “Δ^6” value was determined as 12 °C and the “Δ^24” value was 21 °C. In series [4] (setting [10]), the “Mydriasis-Dose to cause 200% effect” value came to 92 mg/kg. For the same compound, in series [5], the Kb was 100 µM.

For the compound `CC(=O)OC(CN(C)C)C(c1ccccc1)c1ccccc1` (stereo not shown) [H COCH3 N(CH3)2, 2-Acetoxy-3-dimethylamino-1,1-diphenyl-propane], in the series with reserpine hypothermia [1] (20 mg/kg), the “Δ^6” value is above 10 °C and the “Δ^24” value was above 10 °C.

With `OC(CN1CCOCC1)C(c1ccccc1)c1ccccc1` (stereo not shown) [H H morpholino], in the series on reserpine hypothermia [1] (100 mg/kg), the “Δ^6” value worked out at 10 °C and the “Δ^24” value worked out at 10 °C.

For the compound `OC(CN1CCCCC1)C(c1ccccc1)c1ccccc1` (stereo not shown) [H H piperidine, 3-N-Piperidino-1 1-diphenyl-propan-2-ol], in the series on reserpine hypothermia [1] (100 mg/kg), the “Δ^6” value stood at 9 °C and the “Δ^24” value worked out at 10 °C.

In the case of `CN(C)CCCN1c2ccccc2CCc2ccccc21` [Imipramine HCl, reference compound], the “Δ^6” value was determined as 10 °C in the series with reserpine hypothermia [1] (30 mg/kg) and 18 °C in the series with reserpine hypothermia [2] (10 mg/kg). The “Δ^24” value was 17 °C with reserpine hypothermia [1] (30 mg/kg) and 18 °C in the series on reserpine hypothermia [2] (10 mg/kg). The “Inhibition of Monoamine Uptake NA (%)” value worked out at 85% in the series with Noradrenaline uptake (10^-5 molar) and 56% in the series with Noradrenaline uptake (10^-6 molar (Table 4)). Besides, the “Inhibition of Monoamine Uptake 5HT (%)” value in series [6] (10^-5 molar) amounted to 90%; in series [6] (10^-6 molar) it was 55%. Besides, the “Mydriasis-Dose to cause 200% effect” value in series [4] (setting [10]) stood at 18 mg/kg. In addition, in series [5], the Kb is 0.001 µM.
